Test system: human iPS cell-derived hepatocytes
Test: P450-Glo CYP3A4 assay, CYP3A4 activity value per cell
Format: cell-based
Details: FIG. 1C; added to medium that does not contain FBS, EGF and A83-01; culture period of 1 week
Protocol: For the cell culture medium, to a medium obtained by mixing equal amounts of a DMEM/F12 basal medium and an RPMI 1640 basal medium, each of the components was added so that the concentration thereof was to be the following final concentration.
Further, to the above composition, the following components were added in combination to prepare culture media for various hepatocytes,
Using the above-described various media, human iPS cell-derived hepatocytes (FUJIFILM Wako Pure Chemical Corporation, Cat #: C1026) were seeded on a collagen-coated 96-well plate at 1×10^5 cells per well and cultured in an incubator at 37° C. and 5% carbon dioxide gas, and the medium was exchanged every 24 hours. The luminescence intensity by a P450-Glo CYP3A4 assay (Promega Corporation) was measured by using an EnSpire multimode plate reader (PerkinElmer, Inc.) and corrected by the number of cells in the well to calculate the CYP3A4 activity value per cell in the culture period of 1 week.

NC(=O)c1cccnc1 [nicotinamide]
effect on function of hepatocytes (CYP3A4 activity per cell): positive factors for improving the function of hepatocytes

— patent publication US20220228112A1, “MEDIUM FOR CULTURING HEPATOCYTE, METHOD OF PRODUCING HEPATOCYTE, AND HEPATOCYTE” (FUJIFILM Corporation, priority 2019, published 2022)
